Like-named read-outs stand apart in the source and are kept apart here.
Key:
THP-1 cells = assay: MCP-1 induced THP-1 cell migration (Transwell) assay; assay type: cell-based, human; conditions: for EC50 / Emax: Homo sapiens, THP-1
Protocol: Leukocyte migration was measured using the 96-well format micro Transwell^RTM assay system from Neuroprobe (Gaithersburg, MD, USA). In principle, this assay consists of two chambers separated by a porous membrane. The chemoattractant is placed in the lower compartment and the cells are placed in the upper compartment. After incubation for a period at 37°C the cells move towards the chemoattractant, and the number of cells in the lower compartment is proportional to the chemoattractant activity (relative to a series of controls).
The method was performed essentially as previously described (Reckless & Grainger (1999) Biochem. J. 340:803-11).
First, the cell suspension to be placed in the upper compartment was prepared. The THP-1 cells were pelleted by centrifugation (770 x g; 4 mins) and washed with Geys Balanced Salt Solution with 1mg/ml BSA (GBSS + BSA). This wash was then repeated, and the cells re-pelleted before being resuspended in a small volume of GBSS + BSA for counting, for example using a standard haemocytometer.
The volume of GBSS + BSA was then adjusted depending on the number of cells present so that the cells were at final density of 4.45 x 10^6 cells per ml of GBSS + BSA. This ensured that there were 100,000 THP-1 cells in each 25µl of the solution to be placed in the upper chamber of the plate.
The suspension of THP-1 cells at 4.45 x 10^6 cells/ml was divided into three pots. To one pot the BSCI was added at an appropriate final concentration, in an appropriate vehicle (for example (S)- 3-(2',2'-dimethylpropanoylamino)-tetrahydropyridin-2-one was added at 1nM from a stock solution in GBSS). To the second pot, the BSCI was added at the same concentration as in the first pot, but additionally the sstr2 antagonist was also added (for example BIM 23454 [Tulipano et al. (2002) 143:1218-24] or BIM 23627 were added at 66nM final concentration from a stock solution in GBSS). To the third pot, GBSS + BSA plus vehicle as appropriate was added so that the volumes in three pots are equal, acting as a control.
Next, the chemoattractant solution to be placed in the lower compartment was prepared. […]. Note that, as recommended by Frow et al (Med. Res. Rev. 24:276-98) this is the concentration of MCP-1 which induces maximal migration in this system. This solution was divided into three pots, as for the cell suspension. To one pot, the BSCI was added to the same final concentration as was added to the cell suspension, in the second pot the BSCI and the sstr2 antagonist were both added at the same concentration as previously added to the cell suspension, while to the remaining pot GBSS + BSA plus vehicle as appropriate was added so that the volumes in the three pots were equal. Note that the volume of liquid that needs to be added to make the addition of the BSCI and the sstr2 antagonist compounds needs to be taken into account, when establishing the final concentration of MCP-1 in the solution for the lower compartment and the final concentration of cells in the upper compartment.
Once the chemoattractant solutions for the lower wells and cell solutions for the upper chambers were prepared, the migration chamber was assembled. 29 µl of the appropriate chemoattractant solution was placed into the lower well of the chamber. Assays were performed with at least triplicate determinations of each condition. Once all the lower chambers were filled, the porous membrane was applied to the chamber in accordance with the manufacturer's instructions. Finally, 25 µl of the appropriate cell solution was applied to each upper chamber. A plastic lid was placed over the entire apparatus to prevent evaporation.
The assembled chamber was incubated at 37 °C, 5% CO2, for 2 hours. A suspension of cells in GBSS + BSA was also incubated under identical conditions in a tube: these cells were used to construct a standard curve for determining the number of cells that migrated to the lower chamber under each condition. […]

Panc-2H4 = assay: Human Panc-2H4 insulin suppression assay; assay type: cell-based; conditions: Homo sapiens
Description: Two different assays for "classical" sstr2 functions were adopted: (1) cultured foetal rat pituitary cells secreted growth hormone which is inhibited by sstr2 agonists in a dose-dependent fashion and (2) selected glucose-sensitive sub-clones of the human Panc-1 cell line secrete insulin which is inhibited by sstr2 agonists in a dose-dependent fashion.
Glucose-sensitive sub-clones of the human Panc-1, a cell line derived from a pleiomorphic epithelioid carcinoma of the exocrine pancreas, were obtained essentially as described by Hamil et al. (2008) Biomed. Sci. Instrum. 44:441-6. Briefly, Panc-1 cells were subcultured in 24 well plates, and the medium was supplemented with an additional 5% glucose. […] The resulting sub-lines were then tested for glucose sensitivity by preparing wells of a 96-well plate (5 x 10^4 cells per well) which were then exposed to cultured medium containing a range of glucose concentrations (low glucose DMEM, DMEM, DMEM + 1% glucose, DMEM ± 2.5% glucose and DMEM + 5% glucose). After 24hrs incubation, the conditioned medium was collected and assayed for insulin secretion by ELISA (Linco; cat# EZHI-14K) in accordance with the manufacturer's instructions. […] Further 96 well plates were prepared using Panc-2H4 (5 x 10^4 cells per well) in DMEM. After 24hrs, the medium was switched to DMEM + 5% glucose containing various test agents at various concentrations (triplicate wells per condition). After a further 24hrs, the conditioned medium was harvested and the concentration of insulin was determined by ELISA as described above.
Results were reported as the mean ± SD, expressed as the fold change from cells in the presence of vehicle only.

[1] = system: rat peripheral blood leukocytes; assay: Rat chemokine-induced PBMC migration assay; assay type: cell-based; conditions: for EC50 / Emax: Rattus norvegicus, Leukocyte, Table 3; for EC50: read-out: Rat chemokine-induced PBMC migration assay ED50; for Emax: read-out: Rat chemokine-induced PBMC migration assay Max effect (%); for "Classical" : "BSCI" potency ratio Rat: Table 3, rat PBMC migration ED50 versus rat pituicyte GH suppression ED50
[2] = Table 3, read-out: Human chemokine-induced THP-1 migration assay ED50
[3] = Table 3, read-out: Human chemokine-induced THP-1 migration assay Max effect (%)
[4] = Table 3, percentage suppression compared to vehicle, read-out: Human Panc-2H4 insulin suppression assay Max effect (%)

| SMILES | "Classical" : "BSCI" potency ratio Human (THP-1 cells) | EC50 (THP-1 cells; [2]) | Emax (THP-1 cells; [3]) | EC50 (THP-1 cells; Table 5, library screening hits, read-out: Chemokine-induced THP-1 cell migration assay ("BSCI" target) ED50) | Emax (THP-1 cells; Table 5, read-out: Chemokine-induced THP-1 cell migration assay ("BSCI" target) Max Effect (%)) | EC50 (THP-1 cells; read-out: ED50 for inhibition of chemokine-induced THP-1 cell migration) | RATIO (THP-1 cells; Table 5, THP-1 migration ED50 versus insulin suppression ED50) | Emax (Panc-2H4; [4]) | EC50 (Panc-2H4; Table 3, read-out: Human Panc-2H4 insulin suppression assay ED50) | EC50 (Panc-2H4; Table 5, library screening hits, read-out: Panc-2H4 insulin suppression assay ("classical" target) ED50) | Emax (Panc-2H4; Table 5, read-out: Panc-2H4 insulin suppression assay ("classical" target) Max Effect (%)) | EC50 [1] | Emax [1] | "Classical" : "BSCI" potency ratio Rat [1] | potency as BSCI relative to BN83253 (THP-1 cells; Fig. 5 compared with Fig. 4) | "Classical" : "BSCI" potency ratio Human (THP-1 cells; Table 3, THP-1 migration ED50 versus Panc-2H4 insulin suppression ED50) | inhibition of MCP-1 induced cell migration (in words) (THP-1 cells; figure legends and text) |
| --- | --- | --- | --- | --- | --- | --- | --- | --- | --- | --- | --- | --- | --- | --- | --- | --- | --- |
| CCCCCCCCCCC(C)(C)C(=O)N[C@H]1CCCCNC1=O [BN83250, (S)-3-(2',2'-dimethyldodecanoyl)amino-caprolactam] | <0.00009 | 0.09 nM | 100% | 0.09 nM | 100% | < 1 nM | <0.00009 | 28% | 1000 nM | 1000 nM | 28% | 0.28 nM | 100% | 0.0009 | – | – | – |
| CC(C)(C)C(=O)N[C@H]1CCCNC1=O [Valerolactam, (S)-3-(2'2'-dimethylpropionoylamino)-tetrahydropyridin-2-one] | – | 0.05 nM | 100% | – | – | – | – | < 10% | – | – | – | 0.07 nM | 100% | 0.0009 | 20-50 fold | <0.00005 | inhibits MCP-1 induced cell migration in a dose-dependent manner |

Source: patent publication EP2401611B1, “IMPROVED METHODS FOR IDENTIFICATION” (Cambridge Enterprise Limited, priority 2009, dated 2010)
